In patent US8546322B2, “Inhibitors of intracellular urokinase plasminogen activator and methods of use thereof” (The Regents of the University of California, priority 2007, dated 2013):
“Also recorded” adds a separate entry of the source. Where two headings read alike, the source gives them in different places. Each block holds one molecule with its values, some of them ahead of it. *1 amine or outer side, *2 acyl side, *3 side chain or, on linkers, in order; H or OH if unused. Where a SMILES comes first, the peptide text is derived from it. [ ]: non-standard residue; d: D form. X1 = N=C(N)NC(=O)c1nc(Cl)c(N(CC(=O)[*:2])[*:1])nc1N

What was measured:
[1] = Incubation in buffer solutions without enzymes; format: physicochemical
Protocol: (§1) Compound 3b is a C5am-Gly-peptide conjugate containing two D-amino acids, and compound 3c is a C5 am-Gly-peptide conjugate coupled to a peptide to generate an analog of opioid peptides that cross the blood brain barrier (BBB). The resultant conjugates (compounds 3a-c) were tested for selective cleavage by the brain peptidase enkephalinase (neutral endopeptidase 24.11; Calbiochem) via incubation for 24 h in the presence or absence of the enzyme, and aliquots from the reaction solutions were then analyzed by LCMS to identify the C5am-Gly conjugate (compound 3a), starting material, and enzymatic cleavage products (see, Scheme 3). As negative control experiments, the conjugates were analyzed following treatment with (1) bovine pancreatic trypsin (Calbiochem) or (2) the buffer solutions without enzymes.

U87 glioma cells [2] = test: U87 proliferation and survival, tetrazolium (WST) live cell assay and manual cell counts; format: cell-based, human; settings: for activity at 250 µM: Homo sapiens, U-87 MG, 48 h treatment, read-out: cell numbers as % of control at 48 h (WST assay)
Protocol: Proliferation of U87 glioma cells was inhibited by AmC(5)-GlyOBn at 24 h. […] Manual cell counts, coupled with the trypan blue exclusion assay, determined the number of viable cells at 24 h and 48 h. Three separate experiments (n=6/exp) with S.D. as shown, *significance at P<0.01. Removal of AmC(5)-GlyOBn at 24 h caused cell numbers to increase by 48 h, as compared with U87 glioma cell numbers that continued to be treated with the drug for 48 h (Table 1).
Total live cell numbers per well were determined using a tetrazolium assay (WST).
WST […] that can be reduced in attached and detached live cells to formazon that is detected spectrophotometrically. Formazon formation has been determined to be proportional to glioma cell number for U87MG, U251, U373, and primary astrocytes. Absorbances are measured at 570 nm using a microtiter plate reader. Mean background absorbances of cell-free media (630 nm) are subtracted from these values. […] Identical concentrations of glioma cells are grown until 50% confluent on 60 mm plates. Following drug treatments, floating cells in media are collected and combined with adherent cells that were harvested following 0.25% v/v trypsin for 5 minutes (37° C.). The combined fractions are centrifuged at 350×g for 5 min. The resultant cell pellet is resuspended in equal volumes of PBS-CMF with 0.4% trypan blue.

U87 glioma cells [3] = test: U87 cell death, manual cell counts with trypan blue exclusion; format: cell-based, human; settings: for % cell death, trypan blue: 250 microM, 48 h treatment
uPA = molecular target: T1, uPA (Homo sapiens, UniProt P00749); test: uPA enzymatic inhibition with peptide-specific fluorogenic substrates; format: biochemical
T1 construct: uPA, tPA, and MMP-2 and MMP-9 enzymatic activities secreted by and contained within glioma cell lines; endogenous in cells; host or cells: U87 and other human glioma cell lines (homogenates, conditioned media)
Protocol: uPA, tPA, and MMP-2 and MMP-9 enzymatic activities secreted by and contained within glioma cell lines, normal astrocyte cultures, primary rat brain, and intracranial glioma xenograft homogenates are measured using commercial peptide analog substrates, that become fluorescent when enzymatically cleaved. Recombinant tPA was obtained from ASSAYPRO, CT1001.

U87 glioma cells [4] = test: U87 glioma cell adherence to extracellular matrix (ECM); format: cell-based, human; settings: for activity at 250 µM: Homo sapiens, U-87 MG, U87 cells on ECM, 4 h, read-out: % of control attachment at 4 h
Protocol: As shown in FIGS. 4A and B and, U87 glioma cells in logarithmic growth were trypsinized and washed ×1 with PBS. 4×10^5 cells were plated on to each ECM-coated well that was treated as indicated. Cells were monitored for adherence to the ECM. The numbers of attached cells in each well were manually counted using interference microscopy after 4 hours when adherence was complete. Experiments were performed in triplicate for each treatment and data expressed as mean+S.D. **statistically signif at P<0.001. Glioma cell morphology 4 h after plating as visualized by phase contrast microscopy.
To study adherence, wells in 24-well plates are coated with 200 ul of PBS (CMF Dulbecco's) containing one of the following ECM substrates: {i} […] {ii} vitronectin {iii} fibronectin {iv} lamininin-5. Plates are incubated 1 h at 37° C. then wells are washed once with prewarmed serum-free DMEM and the drug added to each well. Each treatment group, consisting of pretreated glioma cells (3×10^3 cells/well) is plated into 6 wells, and adhesion is evaluated at 60 min intervals over a 6-18 hour period, depending of the cell line. Unbound cells are gently dislodged with Dulbecco's PBS, while counting adherent cells in 10 random fields per each well under 10× magnification using an inverted microscope with interference phase optics and an ocular grid (21 mm^2). During the same time intervals, the percent value of spread cells with respect to adherent cells is evaluated.

glioma cells = test: Glioma cell volume in vitro and in intracerebral xenografts (7 tesla NMR); format: cell-based
NHE1 = molecular target: T2, NHE1 (Homo sapiens, UniProt P19634); test: Sodium-proton exchange (NHE1) inhibition in glioma cells (BCECF fluorometry); format: cell-based
T2 construct: endogenous in cells; host or cells: glioma cell lines (U87)
T2 sequence (P19634 whole entry): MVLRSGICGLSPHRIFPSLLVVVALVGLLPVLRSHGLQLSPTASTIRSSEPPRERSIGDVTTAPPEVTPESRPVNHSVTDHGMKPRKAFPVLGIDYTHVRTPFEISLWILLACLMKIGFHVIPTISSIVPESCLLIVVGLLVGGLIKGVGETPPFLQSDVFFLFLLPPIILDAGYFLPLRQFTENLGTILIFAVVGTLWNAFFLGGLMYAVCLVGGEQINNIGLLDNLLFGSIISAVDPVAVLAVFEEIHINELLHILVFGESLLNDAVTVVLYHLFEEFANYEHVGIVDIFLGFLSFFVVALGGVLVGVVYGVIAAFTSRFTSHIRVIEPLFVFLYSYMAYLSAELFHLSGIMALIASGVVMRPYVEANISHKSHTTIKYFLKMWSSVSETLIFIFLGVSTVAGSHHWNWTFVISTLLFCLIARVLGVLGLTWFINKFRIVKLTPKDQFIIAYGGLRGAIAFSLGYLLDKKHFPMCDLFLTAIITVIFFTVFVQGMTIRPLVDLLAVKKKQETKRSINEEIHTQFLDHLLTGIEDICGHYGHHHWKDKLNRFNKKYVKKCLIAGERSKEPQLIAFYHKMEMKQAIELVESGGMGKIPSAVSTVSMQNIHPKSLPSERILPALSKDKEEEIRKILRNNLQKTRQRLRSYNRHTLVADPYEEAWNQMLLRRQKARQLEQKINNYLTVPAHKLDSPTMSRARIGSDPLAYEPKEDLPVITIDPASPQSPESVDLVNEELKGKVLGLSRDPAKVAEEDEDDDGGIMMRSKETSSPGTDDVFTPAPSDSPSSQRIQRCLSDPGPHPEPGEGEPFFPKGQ
Protocol: Sodium-proton type 1 (NHE1) and sodium-calcium transport (NCX) measurements in glioma cells. Inhibition of NHE in glioma cell lines using BCECF and quantitative fluorometry are routinely measured (McLean, L. A., et al., Malignant gliomas display altered pH regulation by NHE1 compared with nontransformed astrocytes. Am J Physiol Cell Physiol, 2000. 278(4): p. C676-88). IC50 of NCX transport bidirectionally is measured using whole cell patch clamping bidirectional NCX inhibition using a HEK-293 cell line transfected with NCX 1.1 obtained from J. Lytton (Dong, H., J. Dunn, and J. Lytton, Stoichiometry of the Cardiac Na+/Ca2+ exchanger NCX1.1 measured in transfected HEK cells. Biophys J, 2002. 82(4): p. 1943-52).

U87 glioma cells [5] = test: Cell permeation by fluorescent microscopy of U87 glioma cells; format: cell-based; settings: 50 μM, 90-180 min incubation
Protocol: 27). The fluorescent extinction coefficient of each compound is determined using a spectrofluorometer and permits semi-quantitative estimations of intracellular drug accumulation.
U87 glioma cells were incubated with 50 uM of each compound for 180 min followed by washing the cells ×2 with PBS.

[6] = molecular target: T3, bovine pancreatic trypsin (Bos taurus, UniProt P00760); test: LCMS trypsin digest (negative control enzyme); format: biochemical; settings: LCMS after incubation with enzyme
T3 construct: purchased Calbiochem; host or cells: bovine pancreas
T3 sequence (P00760 24-246): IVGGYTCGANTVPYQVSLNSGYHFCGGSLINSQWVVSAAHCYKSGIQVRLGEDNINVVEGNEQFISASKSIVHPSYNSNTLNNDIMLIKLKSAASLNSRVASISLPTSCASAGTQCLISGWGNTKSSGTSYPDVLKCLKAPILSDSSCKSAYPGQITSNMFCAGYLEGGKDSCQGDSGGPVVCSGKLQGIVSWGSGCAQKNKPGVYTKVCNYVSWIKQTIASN
Protocol: as §1

[7] = system: intracerebral human U87 glioma xenografts; test: Intracerebral U87 glioma xenograft growth (NMR, stereology); format: in vivo, athymic rats
Protocol: The volume of U87 glioma xenografts were measured at different postimplantation times using the small animal 7 tesla NMR facility on UC Davis campus.
Determining tumor doubling time (hrs) in U87 xenografts were measured using small animal NMR.
Pretreatment of athymic rats with intracranial AmC(5)Gly-OBn for 3 days prior to implantation achieved steady-state brain levels as measured by HPLC-fluorometry. Following glioma cell implantation, once daily intracranial administration was continued for 10 days.
Rats (250-280 gm) are intubated with 4% isoflurane and air:O2 (2:1), maintained on 2% isoflurane, and placed into a Kopf stereotactic apparatus. Glioma cells at are harvested at 80% confluence, trypsinized, and then washed three times in sterile, isotonic phosphate buffered saline. Cells are counted in a hemocytometer and diluted to a final concentration of 1×10^4 cells per microL. 5 microL of glioma cells (5×10^4) are stereotaxically injected into a 0.5 mm pocket made by a 23 gauge needle in the left anterior corpus striatum (−1 mm bregma, +4 mm left lateral, −5.0 mm depth) under sterile conditions in a laminar flow hood.
Prior to imaging the rats are administered 0.5 cc of OMNISCAN gadodiamide intraperitoneally (NYCOMED). […] A gradient recalled echo sequence is obtained which furnished a single slice in sagittal, coronal, and transverse orientations (‘triplot’) and which served as a scout image to ensure proper positioning of the animal. Spectroscopic images are obtained with a 7 Tesla (300 MHz) BRUKER BIOSPEC 70/20 system with a 210 mm horizontal bore equipped with B-GA12 shim coils driven by BRUKER Shim Power Supply with a maximum of 2A of current for each shim. S116 birdcage design resonator coil (maximum current: 100 A and maximum voltage: 150V) of 72 mm maximum sample diameter with gradient strength of 200 mT/mm was used for both. T1-weighted images (TR/TE=500/20 msec) are obtained using the standard spin echo sequence in the transverse, sagittal as well as in the coronal direction. […] Multiple contiguous slices separated by 1 mm are collected using 3 sinc pulses each of 2 msec duration, and which cover the entire tumor in one scan. The average scan time is approx 60 sec for the entire T1-weighted protocol.
Cavalieri's method estimates the volume of a structure (in our case, glial tumor) by measuring the area of the structure in a number of evenly spaced “two-dimensional” sections. In our in vivo tumor model, the procedure involves a systematically random collection of 10 sections evenly spaced through the entire tumor. To perform this, the brain is cut into 40 micron coronal sections and every section is collected to encompass the entire tumor. When the anterior most portion of the tumor becomes visible in the series of sections, a die is thrown to determine if the first, second, third, fourth, or fifth section from that point should be the initial section saved for staining and area analysis. Henceforth, every tenth section is stained and tumor area measured. This ensures that each section through the tumor has an equal probability of being analyzed. Tumor area is estimated with suitable precision by applying to each section a point grid with a known area associated with each point (a/p). Tumor volume (V) is then calculated using the formula: V=(T)·(a/p) delta Pi; where T=distance between sections, P=points landing on the tumor on the ith section.

[8] = Neuropathology and behaviour with intracranial administration; format: in vivo
From the text: […]. For amiloride, parasaggital sections were stained with hematoxylin and eosin in addition to using specialized stains for neuronal damage (FluoroJade) and for myelinated fiber tracts (luxol fast blue). […].
. Each experimental and control group described below consist of a minimum of 10 animals per group. Experimental Design. The in vivo toxicity studies initially employ single, daily intracranial infusions of the candidate compound into a group of Sprague-Dawley rats for 13 days. Treated S-D animals are compared to a group of 10 control animals receiving intracranial drug vehicle injections. The infused drug concentration is based upon the cell line studies and adjusted for the low protein content of the cerebrospinal fluid which is 0.2% that of serum. Animals are behaviorally assessed for toxicity. […]. General Health and Behavioral Studies. Body weights and behavioral parameters are assessed daily in drug-treated and vehicle-treated rats during 12 day treatment paradigms. Currently, standardized behavior tests are used, which include quantitative measures of vestibulomotor function, fine motor coordination, ambulation, and spatial memory. A daily neurotoxicity behavioral sign checklist (72) to detect neurological signs of toxicity and seizures is also performed. Acquisition of spatial memory is particularly sensitive for detecting subtle drug toxicities (Preliminary Results). Body weight is used as a measure of general health. Neuropathological Studies: Cytological studies are performed in the same drug-treated and vehicle-treated rats at the conclusion of behavioral testing. Fixation and sectioning techniques are described in the Experimental Methods section. Hematoxylin and eosin are used routinely to survey for neuropathological changes. Luxol fast blue stains myelin tracts to evaluate potential white matter changes. […] Assessment of brainstem white matter tracts with luxol fast blue staining includes the spinocerebellar, vestibulospinal, corticospinal, spinothalamic. Specialized stains for reactive astrocytes, neuronal chromatolysis, etc. are added if brain lesions are detected. […]. Potential Problems and Alternatives. […]. […] These behavioral studies indicate the need to behaviorally assess treatment of the glioma tumor models.

[9] = in vivo; cited from earlier work

SMILES: NC(N)=NC(=O)c1nc(Cl)c(N)nc1N [Amiloride, 3,5-diamino-6-chloro-N-(diaminomethylene)pyrazinecarboxamide]
- activity at 250 µM (U87 glioma cells [2]): 31%
- % cell death, trypan blue (U87 glioma cells [3]): (57) %
- Doubling time ([7]; 10 mM amiloride reservoir (Alzet pump, infused days 12-17), day 10 post implant): 3.07 h
- Doubling time ([7]; 10 mM amiloride reservoir, day 12 post implant): 3.4 h
- Doubling time ([7]; 10 mM amiloride reservoir, day 15 post implant): 3.99 h
- Doubling time ([7]; 10 mM amiloride reservoir, day 17 post implant): 4.44 h
- Doubling time ([7]; 100 mM amiloride reservoir, 276 pmol/24 h (infused days 12-17), day 10 post implant): 1.23 h
- Doubling time ([7]; 100 mM amiloride reservoir, 276 pmol/24 h, day 12 post implant): 1.98 h
- Doubling time ([7]; 100 mM amiloride reservoir, 276 pmol/24 h, day 15 post implant): 4.58 h
- Doubling time ([7]; 100 mM amiloride reservoir, 276 pmol/24 h, day 17 post implant): 11.65^++ hrs
- xenograft tumor growth (in words) ([7]; intracranial administration): significantly slowed the growth rate
- activity at 250 µM (U87 glioma cells [4]): 58 ± 12%
- behavioral side effects and seizures (in words) ([8]; efficacious intracranial administration): observed
- neuropathological changes in normal brain cell types (in words) ([8]; intracranial administration, 10-14 days): Neither compound produces neuropathological changes; also recorded: Neuropathological changes were not observed
- animals with intermittent seizures ([8]; intrathecal amiloride infusion, S-D male rats): 3 of 8
- spatial memory (in words) ([8]; intrathecal infusion): modestly affect spatial memory; also recorded: problems with spatial memory that persisted throughout the nine day infusion period
- premature deaths (in words) ([8]; rat, in vivo): no premature deaths
- motor performance (in words) ([8]; rats with intracerebral glioma xenografts, infusion): did not alter motor performance
- cell permeation (in words) (U87 glioma cells [5]): rapidly permeate cells

SMILES: NC(=NCc1ccc(Cl)cc1Cl)NC(=O)c1nc(Cl)c(N)nc1N [DCB, 2,4-dichlorobenzamil]
- toxicity (in words) [9]: highly toxic and causes lethality when administered

Now from value to molecule, other results behind:

- stability in control (buffer) digestion (in words) [1]: unaffected
- inhibition of uPA (in words) (uPA): reversible and micromolar inhibitor
- inhibition of uPA (in words) (uPA; listed as AmC(5)-Gly-OH): selectively inhibit
- inhibition of uPA (in words) (uPA; listed as AmC(5)Gly-OH): micromolar range
- inhibition of uPA (in words) (uPA; listed as AmC(5)GlyOH): reversibly and comparably inhibit
- inhibition of NHE1 (in words) (NHE1): reversible and micromolar inhibitor
- IC50 (NHE1; glioma cells): 10 to 100 nM
- potency of NHE1 inhibition relative to amiloride (NHE1; glioma cells): 100-1000 times
- inhibition of NHE1 (in words) (NHE1; listed as AmC(5)Gly-OH): micromolar range
- inhibition of NHE1 (in words) (NHE1; listed as AmC(5)GlyOH): reversibly and comparably inhibit
- inhibition of NHE1 (in words) (NHE1; listed as C5am-Gly): rapidly reversed
- cell permeation (in words) (U87 glioma cells [5]): does not permeate glioma cells
- cell permeation (in words) (U87 glioma cells [5]; listed as AmC(5)Gly-OH): does not permeate cells
- cell permeation (in words) (U87 glioma cells [5]; listed as AmC(5)GlyOH): does not
- cleavage by trypsin (in words) [6]: unaffected
SMILES: N=C(N)NC(=O)c1nc(Cl)c(NCC(=O)O)nc1N [AmC(5)Gly, amilorideC(5)-glycine-OH]
- glioma cell proliferation (in words) (U87 glioma cells [2]): does not affect
- activity at 250 µM (U87 glioma cells [2]): 93%
- % cell death, trypan blue (U87 glioma cells [3]): (5) %
- glioma cell death / viability (in words) (U87 glioma cells [3]; 48 h): does not affect
- glioma cell adherence to ECM (in words) (U87 glioma cells [4]): does not affect
- activity at 250 µM (U87 glioma cells [4]): 85 ± 15%
- glioma cell volume (in words) (glioma cells): shrink glioma cell volumes
- glioma cell volume (in words) (glioma cells; listed as AmC(5)Gly-OH): does reduce glioma cell volume

- cleavage by trypsin (in words) [6]: not cleaved
SMILES: CC(C)C[C@@H](NC(=O)[C@H](Cc1ccccc1)NC(=O)CNC(=O)[C@@H](C)NC(=O)CNc1nc(N)c(C(=O)NC(=N)N)nc1Cl)C(=O)O [Compound 3b, C5am-Gly-D-Ala-Gly-Phe-D-Leu-OH] (H-[X1][dA]GF[dL]-OH)
- stability in control (buffer) digestion (in words) [1]: not cleaved

- cleavage by trypsin (in words) [6]: did not generate C5am-Gly
SMILES: CC(C)C[C@H](NC(=O)[C@H](Cc1ccccc1)NC(=O)CNC(=O)CNC(=O)CNC(=O)CNc1nc(N)c(C(=O)NC(=N)N)nc1Cl)C(=O)O [Compound 3c, C5am-Gly-Gly-Gly-Gly-Phe-Leu-OH] (H-[X1]GGGFL-OH)
